Each structure is given as a SMILES string.

Some targets named below: Vasopressin V2 receptor (Homo sapiens, UniProt P30518); Histamine H1 receptor (Homo sapiens, UniProt P35367); Adenosine receptor A2a (Homo sapiens, UniProt P29274); Vasopressin V1a receptor (Homo sapiens, UniProt P37288); Histamine H3 receptor (Homo sapiens, UniProt Q9Y5N1).
Another experiment addresses Mu-type opioid receptor (Homo sapiens, UniProt P35372). Description: biochemical. The format is functional.
In experiment [1] the target is T1, Alpha-2C adrenergic receptor (Homo sapiens, UniProt P18825).
T1 sequence (P18825 whole entry): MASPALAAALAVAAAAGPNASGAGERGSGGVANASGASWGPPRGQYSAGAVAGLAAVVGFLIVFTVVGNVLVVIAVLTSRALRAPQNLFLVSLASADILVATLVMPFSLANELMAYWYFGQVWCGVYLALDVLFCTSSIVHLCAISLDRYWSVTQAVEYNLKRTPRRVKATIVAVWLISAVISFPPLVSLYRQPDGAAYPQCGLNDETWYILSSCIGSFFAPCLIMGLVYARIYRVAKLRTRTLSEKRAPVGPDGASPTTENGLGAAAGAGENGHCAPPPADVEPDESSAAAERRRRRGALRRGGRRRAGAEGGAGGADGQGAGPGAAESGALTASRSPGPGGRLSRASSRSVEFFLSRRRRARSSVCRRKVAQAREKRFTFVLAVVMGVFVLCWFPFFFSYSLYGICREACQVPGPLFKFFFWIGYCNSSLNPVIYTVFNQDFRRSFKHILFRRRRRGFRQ
The format is functional.

For experiment [2], the target named is T2, 5-hydroxytryptamine receptor 2B (Homo sapiens, UniProt P41595). The format is functional, cell-based.
Experiment [3] addresses Gamma-aminobutyric acid receptor subunit alpha-1 (Rattus norvegicus, UniProt P62813). The format is functional.
Experiment [4] concerns the target T2, 5-hydroxytryptamine receptor 2B. The format is functional, cell-based. This is another data set of the same source.
In experiment [5] the target is Muscarinic acetylcholine receptor M3 (Homo sapiens, UniProt P20309).
Experiment [6] concerns the target T3, Alpha-2A adrenergic receptor (Homo sapiens, UniProt P08913).
T3 sequence (P08913 whole entry): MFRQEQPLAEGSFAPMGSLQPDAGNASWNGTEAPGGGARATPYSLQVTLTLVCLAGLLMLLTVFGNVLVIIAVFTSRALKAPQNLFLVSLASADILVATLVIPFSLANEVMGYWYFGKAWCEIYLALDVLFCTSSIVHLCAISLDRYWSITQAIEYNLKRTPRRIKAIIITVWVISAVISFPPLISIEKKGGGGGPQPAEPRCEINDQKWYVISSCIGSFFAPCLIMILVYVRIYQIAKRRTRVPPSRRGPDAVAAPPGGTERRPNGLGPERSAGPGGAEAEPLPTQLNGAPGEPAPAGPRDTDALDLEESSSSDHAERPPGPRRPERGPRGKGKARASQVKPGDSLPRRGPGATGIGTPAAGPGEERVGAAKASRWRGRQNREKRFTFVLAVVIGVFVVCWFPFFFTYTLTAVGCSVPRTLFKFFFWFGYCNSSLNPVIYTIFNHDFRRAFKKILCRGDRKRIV
The format is functional, cell-based.

Another experiment concerns the target T4, Adenosine receptor A1 (Homo sapiens, UniProt P30542).
T4 sequence (P30542 whole entry): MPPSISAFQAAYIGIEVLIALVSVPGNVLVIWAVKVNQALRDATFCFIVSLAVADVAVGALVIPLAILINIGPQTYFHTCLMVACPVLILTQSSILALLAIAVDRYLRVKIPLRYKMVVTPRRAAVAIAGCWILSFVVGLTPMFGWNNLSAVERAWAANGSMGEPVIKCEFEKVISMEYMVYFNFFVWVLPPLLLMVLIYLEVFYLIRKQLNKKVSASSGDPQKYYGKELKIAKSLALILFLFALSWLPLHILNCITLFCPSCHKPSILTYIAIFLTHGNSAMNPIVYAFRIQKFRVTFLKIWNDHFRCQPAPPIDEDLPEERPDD

Experiment [7] concerns the target Growth hormone secretagogue receptor type 1 (Homo sapiens, UniProt Q92847).
In another experiment the target is T5, B2 bradykinin receptor (Homo sapiens, UniProt P30411).
T5 sequence (P30411 whole entry): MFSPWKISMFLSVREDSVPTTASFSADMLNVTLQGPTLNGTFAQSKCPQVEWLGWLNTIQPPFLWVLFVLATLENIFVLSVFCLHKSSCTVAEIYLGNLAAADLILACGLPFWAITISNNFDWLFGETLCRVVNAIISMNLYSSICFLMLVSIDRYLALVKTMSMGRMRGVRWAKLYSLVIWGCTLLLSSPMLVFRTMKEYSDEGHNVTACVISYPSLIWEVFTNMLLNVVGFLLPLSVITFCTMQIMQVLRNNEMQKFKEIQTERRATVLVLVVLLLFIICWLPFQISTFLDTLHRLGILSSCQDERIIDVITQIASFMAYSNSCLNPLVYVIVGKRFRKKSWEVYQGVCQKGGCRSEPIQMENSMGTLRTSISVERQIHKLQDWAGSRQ

For experiment [8], the target named is Kappa-type opioid receptor (Homo sapiens, UniProt P41145).
Experiment [9] deals with Sodium-dependent noradrenaline transporter (Homo sapiens, UniProt P23975).
Sequence of Sodium-dependent noradrenaline transporter (P23975 whole entry): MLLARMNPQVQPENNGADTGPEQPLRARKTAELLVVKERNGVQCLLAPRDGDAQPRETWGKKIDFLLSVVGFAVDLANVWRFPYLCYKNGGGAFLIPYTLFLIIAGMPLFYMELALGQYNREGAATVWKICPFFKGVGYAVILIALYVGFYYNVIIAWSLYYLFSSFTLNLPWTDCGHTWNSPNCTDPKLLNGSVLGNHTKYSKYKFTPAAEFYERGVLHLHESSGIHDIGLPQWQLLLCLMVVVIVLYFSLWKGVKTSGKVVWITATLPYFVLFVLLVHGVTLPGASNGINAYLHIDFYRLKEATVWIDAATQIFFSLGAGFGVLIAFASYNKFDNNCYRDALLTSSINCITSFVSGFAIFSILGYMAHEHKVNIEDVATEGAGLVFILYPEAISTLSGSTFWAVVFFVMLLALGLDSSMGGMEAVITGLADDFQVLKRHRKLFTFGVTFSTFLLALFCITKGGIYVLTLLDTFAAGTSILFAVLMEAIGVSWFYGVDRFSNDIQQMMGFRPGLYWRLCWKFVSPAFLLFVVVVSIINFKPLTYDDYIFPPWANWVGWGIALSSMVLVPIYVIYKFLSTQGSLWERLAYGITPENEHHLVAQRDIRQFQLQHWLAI

Sequence of Vasopressin V2 receptor (P30518 whole entry): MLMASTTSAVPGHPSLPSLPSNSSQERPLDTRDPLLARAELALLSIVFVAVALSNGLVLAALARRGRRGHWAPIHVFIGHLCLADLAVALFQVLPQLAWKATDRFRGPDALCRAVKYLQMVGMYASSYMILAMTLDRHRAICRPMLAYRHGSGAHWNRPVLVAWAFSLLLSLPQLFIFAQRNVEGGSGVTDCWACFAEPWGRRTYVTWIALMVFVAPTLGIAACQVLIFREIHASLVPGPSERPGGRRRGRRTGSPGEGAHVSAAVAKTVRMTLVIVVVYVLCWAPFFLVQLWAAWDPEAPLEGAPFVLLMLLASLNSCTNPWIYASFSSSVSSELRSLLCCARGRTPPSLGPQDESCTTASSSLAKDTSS
Sequence of Muscarinic acetylcholine receptor M3 (P20309 whole entry): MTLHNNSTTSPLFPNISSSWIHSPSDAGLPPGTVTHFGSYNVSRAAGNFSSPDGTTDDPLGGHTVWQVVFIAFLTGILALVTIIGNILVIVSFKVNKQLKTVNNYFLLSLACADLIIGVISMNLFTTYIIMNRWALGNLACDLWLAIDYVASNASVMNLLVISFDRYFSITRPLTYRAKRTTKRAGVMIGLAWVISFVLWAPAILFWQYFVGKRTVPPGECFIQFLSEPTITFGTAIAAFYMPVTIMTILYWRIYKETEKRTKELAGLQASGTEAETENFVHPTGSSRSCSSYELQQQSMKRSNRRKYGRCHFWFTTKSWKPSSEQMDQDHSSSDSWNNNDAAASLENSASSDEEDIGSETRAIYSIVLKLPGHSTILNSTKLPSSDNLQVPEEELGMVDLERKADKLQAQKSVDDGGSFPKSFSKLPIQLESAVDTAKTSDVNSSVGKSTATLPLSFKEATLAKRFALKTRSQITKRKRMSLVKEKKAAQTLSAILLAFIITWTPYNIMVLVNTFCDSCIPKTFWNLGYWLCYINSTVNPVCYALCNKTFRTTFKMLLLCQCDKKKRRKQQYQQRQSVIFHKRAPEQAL
Sequence of Mu-type opioid receptor (P35372 whole entry): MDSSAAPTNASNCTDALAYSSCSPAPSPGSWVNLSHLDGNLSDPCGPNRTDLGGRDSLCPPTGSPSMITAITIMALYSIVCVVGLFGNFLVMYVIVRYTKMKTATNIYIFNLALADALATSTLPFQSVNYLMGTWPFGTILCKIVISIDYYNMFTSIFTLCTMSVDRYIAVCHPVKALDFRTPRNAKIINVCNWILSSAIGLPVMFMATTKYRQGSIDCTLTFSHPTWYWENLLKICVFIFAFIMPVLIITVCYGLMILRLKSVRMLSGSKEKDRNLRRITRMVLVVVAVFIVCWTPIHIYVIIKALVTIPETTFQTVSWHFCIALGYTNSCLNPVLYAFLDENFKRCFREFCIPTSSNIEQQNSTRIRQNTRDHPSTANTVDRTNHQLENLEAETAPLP
Sequence of Vasopressin V1a receptor (P37288 whole entry): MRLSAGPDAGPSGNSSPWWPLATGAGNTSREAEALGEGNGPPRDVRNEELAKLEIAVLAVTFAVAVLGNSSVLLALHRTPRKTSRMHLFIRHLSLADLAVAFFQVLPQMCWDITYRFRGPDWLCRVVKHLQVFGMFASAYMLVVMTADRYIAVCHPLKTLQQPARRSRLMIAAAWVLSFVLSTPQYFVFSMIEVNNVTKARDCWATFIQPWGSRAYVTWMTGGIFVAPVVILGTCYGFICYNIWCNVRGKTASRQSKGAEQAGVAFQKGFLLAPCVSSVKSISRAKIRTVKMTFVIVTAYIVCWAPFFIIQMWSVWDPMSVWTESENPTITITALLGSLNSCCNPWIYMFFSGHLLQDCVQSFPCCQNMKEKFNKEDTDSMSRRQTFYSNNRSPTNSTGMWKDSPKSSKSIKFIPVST
Sequence of Gamma-aminobutyric acid receptor subunit alpha-1 (P62813 whole entry): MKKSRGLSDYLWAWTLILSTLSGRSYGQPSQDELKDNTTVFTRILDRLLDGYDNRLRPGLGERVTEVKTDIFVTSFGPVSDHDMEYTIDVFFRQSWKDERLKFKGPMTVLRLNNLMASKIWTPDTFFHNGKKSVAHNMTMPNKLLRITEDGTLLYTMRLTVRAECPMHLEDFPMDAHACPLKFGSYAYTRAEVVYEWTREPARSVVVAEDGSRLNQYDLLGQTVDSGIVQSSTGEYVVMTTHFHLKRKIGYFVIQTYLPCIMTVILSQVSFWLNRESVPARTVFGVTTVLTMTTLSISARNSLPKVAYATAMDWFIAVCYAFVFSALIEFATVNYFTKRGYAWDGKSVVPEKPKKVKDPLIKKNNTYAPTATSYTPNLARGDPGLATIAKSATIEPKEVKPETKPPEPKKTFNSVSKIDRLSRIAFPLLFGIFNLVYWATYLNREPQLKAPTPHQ
Sequence of Growth hormone secretagogue receptor type 1 (Q92847 whole entry): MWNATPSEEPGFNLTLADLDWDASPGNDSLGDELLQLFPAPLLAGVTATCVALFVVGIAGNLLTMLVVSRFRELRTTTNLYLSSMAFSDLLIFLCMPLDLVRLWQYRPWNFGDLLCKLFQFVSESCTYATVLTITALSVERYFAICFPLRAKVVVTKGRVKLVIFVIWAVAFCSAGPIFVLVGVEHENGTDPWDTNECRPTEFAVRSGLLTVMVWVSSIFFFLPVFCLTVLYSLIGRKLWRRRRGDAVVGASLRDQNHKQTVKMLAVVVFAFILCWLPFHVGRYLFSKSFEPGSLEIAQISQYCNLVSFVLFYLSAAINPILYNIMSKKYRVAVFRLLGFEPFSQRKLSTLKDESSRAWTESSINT
Sequence of Kappa-type opioid receptor (P41145 whole entry): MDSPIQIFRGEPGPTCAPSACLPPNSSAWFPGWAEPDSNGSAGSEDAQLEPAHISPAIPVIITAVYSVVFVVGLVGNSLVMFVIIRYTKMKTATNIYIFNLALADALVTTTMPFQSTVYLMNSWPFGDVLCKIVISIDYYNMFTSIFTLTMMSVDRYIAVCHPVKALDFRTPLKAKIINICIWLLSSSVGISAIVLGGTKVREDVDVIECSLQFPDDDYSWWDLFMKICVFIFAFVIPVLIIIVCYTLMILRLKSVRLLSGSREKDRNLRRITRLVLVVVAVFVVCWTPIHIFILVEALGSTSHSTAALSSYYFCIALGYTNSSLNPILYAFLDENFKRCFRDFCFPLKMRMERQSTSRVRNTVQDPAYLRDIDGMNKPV
T2 sequence (P41595 whole entry): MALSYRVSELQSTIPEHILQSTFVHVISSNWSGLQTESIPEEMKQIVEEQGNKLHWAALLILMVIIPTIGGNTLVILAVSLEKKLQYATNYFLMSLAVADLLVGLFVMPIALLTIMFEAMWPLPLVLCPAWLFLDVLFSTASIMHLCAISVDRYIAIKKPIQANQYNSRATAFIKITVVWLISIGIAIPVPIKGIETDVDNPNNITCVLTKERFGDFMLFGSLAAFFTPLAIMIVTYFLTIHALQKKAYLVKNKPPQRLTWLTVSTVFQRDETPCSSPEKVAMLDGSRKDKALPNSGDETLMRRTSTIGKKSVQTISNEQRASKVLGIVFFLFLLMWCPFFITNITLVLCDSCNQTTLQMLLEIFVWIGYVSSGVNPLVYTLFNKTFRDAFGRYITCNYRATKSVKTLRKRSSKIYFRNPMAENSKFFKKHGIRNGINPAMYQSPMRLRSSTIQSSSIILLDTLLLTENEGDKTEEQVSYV
Sequence of Histamine H1 receptor (P35367 whole entry): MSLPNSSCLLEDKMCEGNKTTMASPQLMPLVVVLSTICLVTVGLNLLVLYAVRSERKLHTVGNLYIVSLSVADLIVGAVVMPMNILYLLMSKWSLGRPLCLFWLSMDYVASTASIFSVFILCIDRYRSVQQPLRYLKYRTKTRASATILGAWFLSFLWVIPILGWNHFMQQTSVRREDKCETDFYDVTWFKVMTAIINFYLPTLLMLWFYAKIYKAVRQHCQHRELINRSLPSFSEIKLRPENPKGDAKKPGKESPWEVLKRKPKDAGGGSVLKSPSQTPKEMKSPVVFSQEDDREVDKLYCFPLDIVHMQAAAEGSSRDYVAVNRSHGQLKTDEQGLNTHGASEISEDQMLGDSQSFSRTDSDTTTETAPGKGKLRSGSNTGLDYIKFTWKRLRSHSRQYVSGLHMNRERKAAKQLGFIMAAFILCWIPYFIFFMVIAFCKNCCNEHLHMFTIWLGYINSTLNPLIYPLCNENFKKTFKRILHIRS

As for `O=C(O)CCCCCCCC(=O)O` [AZELAIC ACID], the AC50 on Mu-type opioid receptor was greater than 30 µM; in experiment [1], greater than 10 µM; in experiment [2], greater than 10 µM; in experiment [3], greater than 10 µM; on Vasopressin V2 receptor, greater than 10 µM; in [4], greater than 10 µM. The half-maximal activity concentration (AC50) is greater than 10 µM at Histamine H1 receptor; greater than 30 µM in [5]; greater than 10 µM at Adenosine receptor A2a; greater than 10 µM in experiment [6]; greater than 10 µM at Adenosine receptor A1; greater than 10 µM in experiment [7]. Further, the AC50 (at Vasopressin V1a receptor; on B2 bradykinin receptor; in [8]; in [9]) was greater than 10 µM throughout.
Turning to `C=CCC1(CC(C)C)C(=O)NC(=O)NC1=O` [BUTALBITAL], the AC50 was greater than 30 µM at Mu-type opioid receptor; greater than 30 µM in experiment [1]; greater than 10 µM in experiment [2]; greater than 10 µM in [3]; greater than 10 µM on Vasopressin V2 receptor; greater than 10 µM in [4]. The AC50 is greater than 30 µM on Histamine H1 receptor; greater than 30 µM in experiment [5]; greater than 10 µM on Adenosine receptor A2a; greater than 10 µM in experiment [6]; greater than 10 µM on Adenosine receptor A1; greater than 10 µM in [7]. The AC50 (on Vasopressin V1a receptor; on B2 bradykinin receptor; in experiment [8]; in experiment [9]) was greater than 10 µM throughout.
Take `C[C@]1(O)CC[C@H]2[C@@H]3CCC4=CC(=O)CC[C@]4(C)[C@@]3(F)[C@@H](O)C[C@@]21C` [FLUOXYMESTERONE]: the AC50 on Mu-type opioid receptor is greater than 30 µM; in experiment [1], greater than 30 µM; in experiment [2] it was greater than 10 µM; in [3] it was greater than 10 µM; at Vasopressin V2 receptor, greater than 10 µM; in [4], greater than 10 µM. For the same compound, the AC50 at Histamine H1 receptor is greater than 30 µM; in [5], greater than 30 µM; on Adenosine receptor A2a it was greater than 10 µM; in [6] it was greater than 10 µM; at Adenosine receptor A1, greater than 10 µM; in [7] it was greater than 10 µM. Also, the AC50 (on Vasopressin V1a receptor; at B2 bradykinin receptor; in experiment [8]; in [9]) was greater than 10 µM each time.
`Cc1ccc(S(=O)(=O)NC(=O)NN2CC3CCCC3C2)cc1` (stereo unspecified) [GLICLAZIDE]: the AC50 on Mu-type opioid receptor was greater than 30 µM; in experiment [1], greater than 30 µM; in experiment [2] it was greater than 10 µM; in experiment [3], greater than 10 µM; at Vasopressin V2 receptor, greater than 10 µM; in [4], greater than 10 µM. Moreover, the AC50 (at Adenosine receptor A2a; in [6]; on Adenosine receptor A1; in experiment [7]; on B2 bradykinin receptor; in experiment [8]) was greater than 10 µM in each case. In addition, the AC50 in experiment [9] was greater than 10 µM.
`CO[C@@H]1[C@@H](O[C@@H]2O[C@H](C)[C@@H](O[C@H]3C[C@@](C)(O)[C@@H](OC(=O)CC(C)C)[C@H](C)O3)[C@H](N(C)C)[C@H]2O)[C@@H](CC=O)C[C@@H](C)[C@@H](O)/C=C/C=C/C[C@@H](C)OC(=O)C[C@H]1OC(C)=O` [JOSAMYCIN]: the AC50 at Mu-type opioid receptor is greater than 30 µM; in experiment [1], greater than 10 µM; in [2], greater than 10 µM; in [3], greater than 10 µM; at Vasopressin V2 receptor, greater than 10 µM; in experiment [4], greater than 10 µM. Further, the AC50 on Histamine H1 receptor was greater than 10 µM; in experiment [5] it was greater than 30 µM; at Adenosine receptor A2a it was greater than 10 µM; in experiment [6], greater than 10 µM; on Adenosine receptor A1 it was greater than 10 µM; in experiment [7], greater than 10 µM. Moreover, the AC50 (on Vasopressin V1a receptor; on B2 bradykinin receptor; in [8]; in experiment [9]) was greater than 10 µM each time.
Regarding `C[C@](N)(Cc1ccc(O)c(O)c1)C(=O)O` [METHYLDOPA], the half-maximal activity concentration (AC50) on Mu-type opioid receptor was greater than 30 µM; in [1], greater than 10 µM; in experiment [2], greater than 10 µM; in experiment [3], greater than 10 µM; on Vasopressin V2 receptor, greater than 10 µM; in experiment [4], greater than 10 µM. Further, the AC50 is greater than 30 µM at Adenosine receptor A2a; greater than 10 µM in experiment [6]; greater than 30 µM on Adenosine receptor A1; greater than 10 µM in [7]; greater than 10 µM at B2 bradykinin receptor; greater than 10 µM in experiment [8]. Further, in [9], the AC50 was greater than 10 µM.
For the compound `O=C(NCCN1CCOCC1)c1ccc(Cl)cc1` [MOCLOBEMIDE], the AC50 at Mu-type opioid receptor was greater than 30 µM; in [1], greater than 10 µM; in experiment [2] it was greater than 10 µM; in experiment [3], greater than 10 µM; at Vasopressin V2 receptor it was greater than 10 µM; in experiment [4], greater than 10 µM. For the same compound, the concentration at half-maximal activity (AC50) (at Adenosine receptor A2a; in experiment [6]; on Adenosine receptor A1; in [7]; at B2 bradykinin receptor; in [8]) was greater than 10 µM in each case. Further, the AC50 in experiment [9] was greater than 10 µM.
In the case of `CCCC(C)C1(CC)C(=O)NC(=O)NC1=O` (stereo unspecified) [PENTOBARBITAL], the AC50 on Mu-type opioid receptor is greater than 30 µM; in experiment [1], greater than 30 µM; in [2], greater than 10 µM; on Vasopressin V2 receptor, greater than 10 µM; in experiment [4] it was greater than 10 µM; at Histamine H1 receptor, greater than 30 µM. For the same compound, the AC50 in [5] was greater than 30 µM; at Adenosine receptor A2a, greater than 10 µM; in experiment [6], greater than 10 µM; at Adenosine receptor A1 it was greater than 10 µM; in [7] it was greater than 10 µM; on Vasopressin V1a receptor, greater than 10 µM. In addition, the AC50 (at B2 bradykinin receptor; in experiment [8]; in experiment [9]) was greater than 10 µM each time.
For `CCCN(CCC)C(=O)C(CCC(=O)O)NC(=O)c1ccccc1` (stereo unspecified) [PROGLUMIDE], the AC50 is greater than 30 µM at Mu-type opioid receptor; greater than 30 µM in [1]; greater than 10 µM in experiment [2]; greater than 10 µM in [3]; greater than 30 µM on Vasopressin V2 receptor; greater than 10 µM in experiment [4]. Moreover, the AC50 on Histamine H3 receptor was greater than 30 µM; on Adenosine receptor A2a, greater than 30 µM; in experiment [6], greater than 10 µM; at Adenosine receptor A1, greater than 30 µM; in [7], greater than 30 µM; on Vasopressin V1a receptor, greater than 30 µM. Also, the AC50 at B2 bradykinin receptor was greater than 30 µM; in [8], greater than 10 µM; in experiment [9] it was greater than 30 µM.
As for `C[C@]12CC[C@H]3[C@@H](CCC4=CC(=O)CC[C@@]43C)[C@@H]1CC[C@@H]2O` [TESTOSTERONE], the AC50 on Mu-type opioid receptor is greater than 30 µM; in experiment [1], greater than 10 µM; in [2] it was greater than 10 µM; in experiment [3], greater than 10 µM; on Vasopressin V2 receptor it was greater than 10 µM; in experiment [4] it was greater than 10 µM. For the same compound, the AC50 (at Adenosine receptor A2a; in experiment [6]; at Adenosine receptor A1; in experiment [7]; at B2 bradykinin receptor; in experiment [8]) was greater than 10 µM in each case. Moreover, the AC50 in experiment [9] is greater than 10 µM.

(Values after ChEMBL document CHEMBL5291721, “A preclinical secondary pharmacology resource illuminates target-adverse drug reaction associations of marketed drugs” (Nat Commun, 2023).)
